In patent US20070020196A1, “Inhalant formulation containing sulfoalkyl ether cyclodextrin and corticosteroid prepared from a unit dose suspension” (priority 2003, published 2007):

Experiments:
[1] = Molar ratio SAE-CD:corticosteroid at saturated solubility (phase solubility binding study); type: physicochemical
[2] = Solubility of selected steroids enhanced by cyclodextrins (phase solubility); details: thermodynamic from solid
[3] = Light stability of budesonide under fluorescent lights; type: physicochemical
From the text: Samples of the above solutions were also placed in a chamber under a bank of fluorescent lights. Vials were periodically removed and assayed for budesonide. […] The loss of budesonide was first order and independent of pH.

[4] = male, human, in vivo; cited from earlier work
[5] = Tonicity of SBE7-β-CD solutions with respect to blood; type: physicochemical; details: in water
From the text: An osmotic agent can be used in the compositions to enhance the overall comfort to the patient upon delivery of the corticosteroid composition. Osmotic agents can be added to adjust the tonicity of SAE-CD containing solutions. Osmolality is related to concentration of SAE-CD in water. At SBE7-β-CD concentrations below about 11-13% w/v, the solutions are hypotonic or hypoosmotic with respect to blood and at SBE7-β-CD concentrations above about 11-13% w/v the SBE7-β-CD containing solutions are hypertonic or hyperosmotic with respect to blood. When red blood cells are exposed to solutions that are hypo- or hypertonic, they can shrink or swell in size, which can lead to hemolysis. As noted above and in FIG. 1, SBE-CD is less prone to induce hemolysis than other derivatized cyclodextrins. Suitable osmotic agents include any low molecular weight water-soluble species pharmaceutically approved for pulmonary and nasal delivery such as sodium chloride, lactose and glucose. The formulation of the invention can also include biological salt(s), potassium chloride, or other electrolyte(s).

[6] = system: red blood cells; details: concentrations typically used to solubilize pharmaceutical formulations; cited from earlier work
[7] = Viscosity of aqueous SAE-CD solutions (cone and plate viscometer); type: physicochemical; details: 25 C
Protocol: The performance of an inhalable solution of the invention in a nebulizer may depend upon the viscosity of the solution in its reservoir, the nebulization solution. Viscosity of the inhalable composition can have an impact on percentage of nebulization composition emitted from a nebulizer, output rate of nebulized corticosteroid and droplet size distribution.
The viscosity of aqueous solutions containing SAE-CD were measured using a cone and plate viscometer.
A Brookfield Programmable DV-III+ Rheometer, CPE-40 cone and CPE 40Y plate (Brookfield Engineering Laboratories, Middleboro, Mass.) was used to make measurements on 0.5 ml samples at 1, 2, 3, 5 and 10 rpm. Samples were sheered for approximately 5 revolutions prior to each measurement. This allowed accurate rheological characterization of the samples. The temperature of all samples was equilibrated to 25+/−1 degree centigrade using a double wall viscometer cone supplied with water from an electronically controlled thermostatic circulating water bath (Model, 8001, Fisher Scientific, Pittsburgh, Pa.). The viscometer was calibrated using 5 and 50 centipoise using silicon oil calibration standards. Viscosity measurements were made at 5 or more rotation speeds to look for sheer thinning behavior (viscosities that decrease as the rate of sheer increases). Higher rotation speeds result in increased rates of sheer.

[8] = Density of CAPTISOL solutions (pycnometer); type: physicochemical; details: 25° C.
Protocol: The concentration of SAE-CD in solution can be expressed on a weight to weight or weight to volume basis; however, these two units are interconvertible. When a known weight of cyclodextrin is dissolved in a known weight of water, the % w/w cyclodextrin concentration is determined by dividing the cyclodextrin weight in grams by the total weight (cyclodextrin+water weight) in like units and multiplying by 100. When a known weight of cyclodextrin is dissolved to a known total volume, the % w/v cyclodextrin concentration is determined by dividing the cyclodextrin weight in grams by the total volume in milliliters and multiplying by 100. The correlation between the two cyclodextrin concentration percentages was experimentally determined by preparing various % w/w cyclodextrin solutions and measuring the density of each with a pycnometer at 25° C.

Question: Which “Approximate Molar Ratio at Saturated Solubility of Corticosteroid (SAE-CD: corticosteroid)” value (shortened to “Approximate Molar Ratio”) ([1]; SAE-α-CD) does the source give for `CCCC1O[C@@H]2C[C@H]3[C@@H]4CCC5=CC(=O)C=C[C@]5(C)[C@H]4[C@@H](O)C[C@]3(C)[C@]2(C(=O)CO)O1` (stereo partly drawn) [Budesonide, (R,S)-11β,16α,17,21-tetrahydroxypregna-1,4-diene-3,20-dione cyclic 16,17-acetal with butyraldehyde] here?
Answer: ~12

Question: What about the “Approximate Molar Ratio” value ([1]; SAE-β-CD) of the same compound?
Answer: ~16

Question: What about the “Approximate Molar Ratio” value ([1]; SAE-γ-CD (SBE5.2)) of the same compound?
Answer: ~10.8 (SBE5.2),

Question: What about the “Approximate Molar Ratio” value ([1]; SAE-γ-CD (SBE6.1)) of the same compound?
Answer: ~13 (SBE6.1),

Question: And the “Approximate Molar Ratio” value ([1]; SAE-γ-CD (SPE5.4))?
Answer: ~10.1 (SPE5.4)

Question: What about the solubility ([2]; aqueous cyclodextrin solution, aqueous with cosolvent or surfactant or cyclodextrin, Solubility of steroid, (SBE)5.2 γ-CD 0.04 M) of the same compound?
Answer: 3.76 mM

Question: And the solubility ([2]; aqueous cyclodextrin solution, aqueous with cosolvent or surfactant or cyclodextrin, Solubility of steroid, (SBE)5.2 γ-CD 0.1 M)?
Answer: 8.62 mM

Question: What about the solubility ([2]; aqueous cyclodextrin solution, aqueous with cosolvent or surfactant or cyclodextrin, Solubility of steroid, (SBE)6.1 γ-CD 0.04 M) of the same compound?
Answer: 3.07 mM

Question: And the solubility ([2]; aqueous cyclodextrin solution, aqueous with cosolvent or surfactant or cyclodextrin, Solubility of steroid, (SBE)6.1 γ-CD 0.08 M)?
Answer: 6.99 mM

Question: And the solubility ([2]; aqueous cyclodextrin solution, aqueous with cosolvent or surfactant or cyclodextrin, Solubility of steroid, (SBE)6.7 β-CD 0.0465 M)?
Answer: 2.55 mM

Question: And the solubility ([2]; aqueous cyclodextrin solution, aqueous with cosolvent or surfactant or cyclodextrin, Solubility of steroid, (SBE)6.7 β-CD 0.0950 M)?
Answer: 4.28 mM

Question: What about the solubility ([2]; aqueous cyclodextrin solution, aqueous with cosolvent or surfactant or cyclodextrin, Solubility of steroid, (SBE)7 α-CD 0.04 M) of the same compound?
Answer: 3.48 mM

Question: And the solubility ([2]; aqueous cyclodextrin solution, aqueous with cosolvent or surfactant or cyclodextrin, Solubility of steroid, (SBE)7 α-CD 0.08 M)?
Answer: 5.98 mM

Question: And the solubility ([2]; aqueous cyclodextrin solution, aqueous with cosolvent or surfactant or cyclodextrin, Solubility of steroid, (SBE)9.7 γ-CD […])?
Answer: 4.53 mM

Question: And the solubility ([2]; aqueous cyclodextrin solution, aqueous with cosolvent or surfactant or cyclodextrin, Solubility of steroid, (SPE)5.4 γ-CD 0.04 M)?
Answer: 4.01 mM

Question: What about the solubility ([2]; aqueous cyclodextrin solution, aqueous with cosolvent or surfactant or cyclodextrin, Solubility of steroid, (SPE)5.4 γ-CD 0.08 M) of the same compound?
Answer: 7.74 mM

Question: What about the solubility ([2]; aqueous cyclodextrin solution, aqueous with cosolvent or surfactant or cyclodextrin, Solubility of steroid, (SPE)7 β-CD 0.08 M) of the same compound?
Answer: 2.42 mM

Question: And the solubility ([2]; aqueous cyclodextrin solution, aqueous with cosolvent or surfactant or cyclodextrin, Solubility of steroid, β-CD 0.015M)?
Answer: 0.813 mM

Question: And the solubility ([2]; aqueous cyclodextrin solution, aqueous with cosolvent or surfactant or cyclodextrin, Solubility of steroid, γ-CD 0.035 M)?
Answer: 0.101 mM

Question: What about the solubility ([2]; aqueous cyclodextrin solution, aqueous with cosolvent or surfactant or cyclodextrin, Solubility of steroid, γ-CD 0.1 M) of the same compound?
Answer: 0.041 mM

Question: And the solubility ([2]; aqueous cyclodextrin solution, aqueous with cosolvent or surfactant or cyclodextrin, [Steroid] solubility, (SBE)6.1 γ-CD (0.04 M))?
Answer: 3.07 mM

Question: What about the solubility ([2]; aqueous cyclodextrin solution, aqueous with cosolvent or surfactant or cyclodextrin, [Steroid] solubility, Captisol (0.04 M)) of the same compound?
Answer: 2.55 mM

Question: And the solubility ([2]; water, Solubility of steroid, H2O, no CD)?
Answer: 0.0659 mM

Question: And the solubility ([2]; water, [Steroid] Intrinsic Solubility (in H2O), in H2O)?
Answer: 0.066 mM

Question: And the “Light Stability, Pseudo 1st Order Rate constant” value (shortened to “Light Stability”) ([3]; Captisol, pH 4)?
Answer: 0.0585 h⁻¹

Question: And the “Light Stability” value ([3]; Captisol, pH 6)?
Answer: 0.0562 h⁻¹

Question: And the “Light Stability” value ([3]; No Captisol, pH 4)?
Answer: 0.0812 h⁻¹

Question: What about the “Light Stability” value ([3]; No Captisol, pH 6) of the same compound?
Answer: 0.0822 h⁻¹

Question: Which Bioavailability [4] does the source give for `CCNC(=O)[C@@H]1CCCN1C(=O)[C@H](CCCNC(=N)N)NC(=O)[C@H](CC(C)C)NC(=O)[C@@H](CC(C)C)NC(=O)[C@H](Cc1ccc(O)cc1)NC(=O)[C@H](CO)NC(=O)[C@H](Cc1c[nH]c2ccccc12)NC(=O)[C@H](Cc1c[nH]cn1)NC(=O)[C@@H]1CCC(=O)N1` [leuprolide acetate] here?
Answer: 2.4%

Question: And the “Bioavailability compared with i.v.” value [4]?
Answer: 94%

Question: Which results are given for “Sulfobutyl ether β-cyclodextrin [Captisol]”?
Answer: SBE7-β-CD concentration below which solutions are hypotonic and above which hypertonic with respect to blood [5]: 11-13 % w/v; Hemolytic behavior [6]: essentially no hemolytic behavior; Viscosity ([7]; 8.5 % w/w Captisol): 1.75 Cp; Viscosity ([7]; 29.8 % w/w Captisol): 5.91 Cp; Viscosity ([7]; 39.7 % w/w Captisol): 17.0 Cp; Viscosity ([7]; 49.4 % w/w Captisol): 51.9 Cp; Viscosity ([7]; 59.4 % w/w Captisol): 527.0 Cp; Viscosity ([7]; […] w/w Captisol): 2.78 Cp; Density ([8]; 8.5 % w/w Captisol): 1.041 g/mL; Density ([8]; 29.8 % w/w Captisol): 1.149 g/mL; Density ([8]; 39.7 % w/w Captisol): 1.202 g/mL; Density ([8]; 49.4 % w/w Captisol): 1.259 g/mL; Density ([8]; 59.4 % w/w Captisol): 1.320 g/mL; Density ([8]; […] w/w Captisol): 1.095 g/mL
